# In patent US9744186B2 (priority 2012, dated 2017):
# Where two headings read alike, the source gives them in different places.
# Experiments:
# Huh7 cells = assay: in vitro; conditions: control Huh7 cells; 48 h drug exposure; MTS
# Protocol: (§1) Plating Cells: The Huh7 cell line was passaged when it was at about 70% confluency. The cells were counted using a hemocytometer, followed by dilution of the cells to 0.5×10^5 cells per mL in DMEM+10% FBS. The cells were plated at 100 μL (5,000 cells) per well in a clear 96-well plate. The cells were allowed to attach for 24 hours at 37° C.
# (§2) Treating the cells: The media (DMEM media without phenol red+2% FBS media) was pre-warmed to 37° C. […] This provided a final DMSO concentration of 0.5%. The 100 mM stock of 3,5-dichlorobenzoic acid was diluted in DMEM without phenol red+2% FBS to a concentration of 0.5 mM. The working 0.5 mM diluted test drugs were serially diluted in DMEM without phenol red+2% FBS+0.5% DMSO in order to maintain a constant concentration of DMSO in each condition. The 96-well plate was removed from the 37° C. incubator, and the media on the plate was replaced with media containing diluted test drug.
# (§3) MTS Assay: The reagents from CellTiter 96 kit (Promega Corporation, Madison, Wis.) were thawed at room temperature in the dark for 1 h. The 96-well plate was removed from the 37° C. incubator at 48 h after drug treatment. 20 μL of the combined MTS/PMS reagent to each well of the plate, mixed, and the plate returned to 37° C. The absorbance of each well at 490 nm and 650 nm was determined using the Flexstation 3 microplate reader in endpoint mode every hour for 3 h. The solutions in the wells were mixed prior to each reading. The data were fit to the Emax model: y=(Emax*x)/(TC50+x), where Emax is the maximum inhibition and TC50 is the inhibitory dose 50%. Alternatively, the data can be fit to the Emax sigmoidal model: y=(Emax*x^slope)/(TC50^slope+x^slope), where slope is the Hill Slope.
# in vitro = assay: in vitro
# Protocol: as §1, §2, §3
# [1] = TC50 MTS assay with human cancer cell lines: HEPG2; type: cell-based; conditions: HEPG2 cells, 96 h drug treatment
# Protocol: (§4) Plating Cells: The Huh7, HEPG2, HEK293, MCF-7, PK9, RPK9, or BxPC3 cells were passaged when they were about 70% confluent. The cells were counted using a hemocytometer, and then diluted cells to 0.5×10^5 cells per mL in DMEM+10% FBS. 100 µL of the cells (5,000 cells) were plated per well in a clear 96-well plate. The cells were allowed to attach for 24 hours at 37° C.
# (§5) Treating the cells: Pre-warm the DMEM media without phenol red+2% FBS media to 37° C. […] This will bring the final DMSO concentration to 0.5%. Use these 0.5 mM dilutions to further serially the drugs in DMEM without phenol red+2% FBS+0.5% DMSO. This will keep the concentration of DMSO in each condition identical. Remove the 96-well plate from the 37° C. incubator. Replace the media on the plate with the dilutions of the drugs. Stagger these treatments by 1 h and write the treatment time on each set of plates. Return to 37° C. for 48 h or 96 h as indicated.
# as §3, with “Fit Data” for “The data were fit”, “Alternatively, fit” for “Alternatively,”, “data” for “data can be fit”
# Each TC50 was the average value of three measurements as described herein. […] The RPK9 cells are deficient in deoxycytidine kinase (“dCK”) activity, an enzyme required for the initial phosphorylation of dFdC to dFdCMP (see FIG. 2).
# [2] = Stability test of HPLC-purified gemcitabine analogs at different pH conditions; type: physicochemical; conditions: 200 μM
# Protocol: The solution was then incubated for 4 hours at 40° C. [table] HPLC analysis: 100 μl of the incubated solution was loaded onto the Vydac C18 analytical column 4.6/250 at 1 ml/min water with the following procedures: a. Inject 100 μl the incubated solution; b. Water for 5 minutes at 1 ml/min; c. 0-100% methanol over 30 minutes; d. Back to 20% methanol. Analysis: The standard HPLC analysis software was used to quantitate the area under each peak. Degradation peaks are quantitated as a percentage of the peak of the same amount of control sample (no heat treatment).
# HCV luciferase replicon = HCV luciferase replicon inhibition in the presence of carboxylesterase inhibitors (benzil or BNPP); type: cell-based; conditions: Hepatitis C virus, 48 h
# Protocol: The cells were counted using a hemocytometer, and then diluted to 1×10^5 cells/mL in DMEM with 10% FBS and […] G415. 100 μL of the cells (10,000 cells) were plated per well in a white-walled 96-well plate according to the template on the following page.
# Treating the cells: Media (DMEM with 2% FBS) was pre-warmed to 37° C. Stock solutions (100 mM) of Benzil and BNPP were diluted in DMEM with 2% FBS to 100 μM. […] The cells were returned to 37° C. for 1 h. […] The 1.0 mM dilution of GCB or GTB in DMEM+2% FBS+100 μM Benzil or BNPP was serially diluted in DMEM with 2% FBS, 0.5% DMSO, 100 μM benzil or BNPP. At the end of the 1 h incubation, the 96-well plate with cells plated as above was removed from the 37° C. incubator, and 50 μL media diluted test drug and 100 μM of benzil or BNPP was added to each well. The plates were gently rocked to mix the media. Also included were conditions with inhibitors alone (DMEM+2% FBS+0.5% DMSO+100 μM benzil or BNPP) and media alone (DMEM+2% FBS+0.5% DMSO) in triplicate. The plates were returned to 37° C. for 48 h.
# [3] = TC50 MTS assay: RPK9 cells (deficient in deoxycytidine kinase); type: cell-based; conditions: human, 48 h drug treatment, dCK-deficient cells
# Protocol: as §4, §5
# (§6) MTS Assay: The reagents from CellTiter 96 kit (Promega Corporation, Madison, Wis.) were thawed at room temperature in the dark for 1 h. The 96-well plate was removed from the 37° C. incubator at 48 h after drug treatment. […] The absorbance of each well at 490 nm and 650 nm was determined using the Flexstation 3 microplate reader in endpoint mode every hour for 3 h. The solutions in the wells were mixed prior to each reading. […]
# [4] = TC50 MTS assay: PK9 cells; type: cell-based; conditions: human, 48 h drug treatment
# Protocol: as §4, §5, §6
# [5] = Pretreatment (control sample, no heat treatment)
SMILES,TC50 (Huh7 cells) [nM],CC50 at 48 h (in vitro) [nM],CC50 at 96 h [1] [nM],"% remaining [2, 5] [%]","% remaining ([2]; pH 1, 4 hours at 40° C.) [%]","% remaining ([2]; pH 2, 4 hours at 40° C.) [%]","% remaining ([2]; pH 4, 4 hours at 40° C.) [%]","% remaining ([2]; pH 6, 4 hours at 40° C.) [%]","% remaining ([2]; pH 8, 4 hours at 40° C.) [%]","IC50 (HCV luciferase replicon; 100 μM BNPP, read-out: IC50 (nM) +BNPP) [nM]","IC50 (HCV luciferase replicon; 100 μM benzil, read-out: IC50 (nM) +Benzil) [nM]","IC50 (HCV luciferase replicon; no carboxylesterase inhibitor, read-out: IC50 (nM) −Benzil −BNPP) [nM]",CC50 at 48 h [3] [µM],CC50 at 48 h [4] [µM]
"O=C(Nc1ccn([C@@H]2O[C@H](CO)[C@@H](O)C2(F)F)c(=O)n1)c1cc(Cl)cc(Cl)c1 [GCB, N^4-(3,5-Dichlorobenzoyl)gemcitabine]",> 100000,110000 ± 36000,633 ± 207,100,35,82,98.4,99.6,35.4,,,,,
"COc1cc(C(=O)Nc2ccn([C@@H]3O[C@H](CO)[C@@H](O)C3(F)F)c(=O)n2)cc(OC)c1OC [GTB, N^4-(3,4,5-Trimethoxybenzoyl)gemcitabine]",,495000 ± 97000,1670 ± 420,100,86,87,98.6,99.5,82.7,81,125,49,> 500,1.69 ± 0.1
